Data reported in ChEMBL document CHEMBL4699433, “Rational design, synthesis and testing of novel tricyclic topoisomerase inhibitors for the treatment of bacterial infections part 2” (RSC Med Chem, 2020).
pIC50: −log10 of the molar value. ≈ marks a conversion by molar mass, not a printed value.

Experiments:
Staphylococcus aureus [1] = assay: Antibacterial activity against wild type methicillin-sensitive Staphylococcus aureus ATCC 29213 assessed as reduction in bacterial growth by CLSI based broth microdilution method; format: functional
Staphylococcus aureus [2] = assay: Antibacterial activity against Staphylococcus aureus ATCC 43300 assessed as reduction in bacterial growth by CLSI based broth microdilution method; format: functional
Streptococcus pyogenes = assay: Antibacterial activity against wild type Streptococcus pyogenes ATCC 19615 assessed as reduction in bacterial growth by CLSI based broth microdilution method; format: functional
[3] = target: Sodium channel protein type 5 subunit alpha (Homo sapiens, UniProt Q14524); assay: Inhibition of Nav1.5 (unknown origin) by patch clamp assay
[4] = target: Voltage-gated inwardly rectifying potassium channel KCNH2 (Homo sapiens, UniProt Q12809); assay: Inhibition of human ERG by patch clamp assay
[5] = Efflux ratio of permeability in human Caco2 cells; format: ADME, cell-based; details: Caco-2
Cytochrome P450 2D6 = Cytochrome P450 2D6 (Homo sapiens, UniProt P10635); assay: Inhibition of CYP2D6 (unknown origin); format: ADME
TK6 [6] = assay: Genotoxicity in human TK6 cells at 200 uM in absence of S9 fraction by BlueScreen assay; format: toxicity, cell-based; details: tk6, 200 µM
Cytochrome P450 2C19 = Cytochrome P450 2C19 (Homo sapiens, UniProt P33261); assay: Inhibition of CYP2C19 (unknown origin); format: ADME
Enterococcus faecalis = assay: Antibacterial activity against wild type Enterococcus faecalis ATCC 29212 assessed as reduction in bacterial growth by CLSI based broth microdilution method; format: functional
[7] = test system: Staphylococcus epidermidis; assay: Antibacterial activity against MRSE AMG-, ERY-resistant Staphylococcus epidermidis NRS101 assessed as reduction in bacterial growth by CLSI based broth microdilution method; format: functional
Neisseria gonorrhoeae [8] = assay: Antibacterial activity against wild-type Neisseria gonorrhoeae ATCC 49226 assessed as reduction in bacterial growth by agar dilution method; format: functional
[9] = target: Voltage-dependent L-type calcium channel subunit alpha-1C (Homo sapiens, UniProt Q13936); assay: Inhibition of Cav1.2 (unknown origin) by patch clamp assay
Neisseria gonorrhoeae [10] = assay: Antibacterial activity against wild type Neisseria gonorrhoeae ATCC 700825 assessed as reduction in bacterial growth by agar dilution method; format: functional
Staphylococcus aureus [11] = assay: Antibacterial activity against AMG- and TET-resistant (Mu50) GyrA (S84L,E409L), GrlA (S80F), methicillin-resistant Staphylococcus aureus NRS1 assessed as reduction in bacterial growth by CLSI based broth microdilution method; format: functional
[12] = Intrinsic clearance in human hepatocytes assessed per 10^6 cells; format: ADME, cell-based, Hepatocyte; details: read-out: CLH
Cytochrome P450 3A4 = Cytochrome P450 3A4 (Homo sapiens, UniProt P08684); assay: Inhibition of CYP3A4 (unknown origin); format: ADME
Staphylococcus aureus [13] = assay: Antibacterial activity against COL-resistant, methicillin-resistant Staphylococcus aureus NRS100 assessed as reduction in bacterial growth by CLSI based broth microdilution method; format: functional
TK6 [14] = assay: Genotoxicity in human TK6 cells at 200 uM in presence of S9 fraction by BlueScreen assay; format: toxicity, cell-based; details: s9, 200 µM
Staphylococcus aureus [15] = assay: Antibacterial activity against AMG-, QAC-, TMP- resistant methicillin- resistant Staphylococcus aureus NRS106 assessed as reduction in bacterial growth by CLSI based broth microdilution method; format: functional
Topoisomerase IV = Topoisomerase IV (Staphylococcus aureus, UniProt P0C1S7+P0C1U9); assay: Inhibition of Staphylococcus aureus topoisomerase IV using kDNA as substrate incubated for 30 mins by ethidium bromide staining based gel electrophoresis analysis; format: protein-complex assay
Staphylococcus aureus [16] = assay: Antibacterial activity against Staphylococcus aureus clinical isolate assessed as reduction in bacterial growth by CLSI based broth microdilution method; format: functional
Staphylococcus aureus [17] = assay: Antibacterial activity against LZD-resistant methicillin-resistant Staphylococcus aureus NRS271 assessed as reduction in bacterial growth by CLSI based broth microdilution method; format: functional
Staphylococcus aureus [18] = assay: Antibacterial activity against AMG-resistant, methicillin-resistant Staphylococcus aureus NRS108 assessed as reduction in bacterial growth by CLSI based broth microdilution method; format: functional
Haemophilus influenzae = assay: Antibacterial activity against Haemophilus influenzae ATCC 49247 assessed as reduction in bacterial growth by CLSI based broth microdilution method; format: functional
Staphylococcus aureus [19] = assay: Antibacterial activity against Staphylococcus aureus VRS1 assessed as reduction in bacterial growth by CLSI based broth microdilution method; format: functional
Staphylococcus aureus [20] = assay: Antibacterial activity against methicillin-resistant Staphylococcus aureus N315 NRS70 assessed as reduction in bacterial growth by CLSI based broth microdilution method; format: functional
Cytochrome P450 1A2 = Cytochrome P450 1A2 (Homo sapiens, UniProt P05177); assay: Inhibition of CYP1A2 (unknown origin); format: ADME
Escherichia coli = assay: Antibacterial activity against Escherichia coli ATCC 25922 assessed as reduction in bacterial growth by CLSI based broth microdilution method; format: functional
Streptococcus pneumoniae = assay: Antibacterial activity against Streptococcus pneumoniae ATCC 49619 assessed as reduction in bacterial growth by CLSI based broth microdilution method; format: functional
[21] = Cytotoxicity against human HepG2 cells; format: cell-based
DNA gyrase = DNA gyrase (Staphylococcus aureus, UniProt P0A0K8+P20831); assay: Inhibition of Staphylococcus aureus DNA gyrase using relaxed pBR322 as substrate incubated for 30 mins by ethidium bromide staining based gel electrophoresis analysis; format: protein-complex assay
Staphylococcus aureus [22] = assay: Antibacterial activity against CA-MRSA ERY-, TET-resistant, FQ Int resistant (USA300 LAC) Staphylococcus aureus NRS384 assessed as reduction in bacterial growth by CLSI based broth microdilution method; format: functional
Staphylococcus aureus [23] = assay: Antibacterial activity against MUP resistant (RN4220 + pGO400), methicillin-resistant Staphylococcus aureus NRS107 assessed as reduction in bacterial growth by CLSI based broth microdilution method; format: functional
Cytochrome P450 2C9 = Cytochrome P450 2C9 (Homo sapiens, UniProt P11712); assay: Inhibition of CYP2C9 (unknown origin); format: ADME
[24] = test system: Staphylococcus epidermidis; assay: Antibacterial activity against wild type Staphylococcus epidermidis ATCC 12228 assessed as reduction in bacterial growth by CLSI based broth microdilution method; format: functional
[25] = Apparent permeability in human Caco2 cells; format: ADME, cell-based; details: Caco-2
Staphylococcus aureus [26] = assay: Antibacterial activity against LZD-resistant, methicillin-resistant Staphylococcus aureus NRS127 assessed as reduction in bacterial growth by CLSI based broth microdilution method; format: functional
Staphylococcus aureus [27] = assay: Antibacterial activity against FQ-resistant, methicillin-resistant Staphylococcus aureus NRS482 assessed as reduction in bacterial growth by CLSI based broth microdilution method; format: functional
Enterococcus faecium [28] = assay: Antibacterial activity against VAN-resistant Enterococcus faecium ATCC 700221 assessed as reduction in bacterial growth by CLSI based broth microdilution method; format: functional
[29] = Kinetic solubility of compound at pH 7.4; format: physicochemical; details: buffer, read-out: Kinetic_solubility
Staphylococcus aureus [30] = assay: Antibacterial activity against VAN resistant methicillin- resistant Staphylococcus aureus VRS8 assessed as reduction in bacterial growth by CLSI based broth microdilution method; format: functional
[31] = Protein binding in human plasma assessed as free fraction; format: ADME, cell-free
Staphylococcus aureus [32] = assay: Antibacterial activity against FQ-resistant methicillin-resistant Staphylococcus aureus NRS74 assessed as reduction in bacterial growth by CLSI based broth microdilution method; format: functional
Enterococcus faecium [33] = assay: Antibacterial activity against wild type Enterococcus faecium ATCC 19434 assessed as reduction in bacterial growth by CLSI based broth microdilution method; format: functional
[34] = Thermodynamic solubility of the compound; format: physicochemical; details: read-out: Therm_solubility

SMILES: Cc1nc2c(=O)n(C3CC3)c3c(Cl)c(N4CC[C@@H]([C@H](C)N)C4)c(F)cc3c2o1
- MIC (Staphylococcus aureus [1]): 0.06 µg/mL (≈ 0.148 µM)
- MIC (Staphylococcus aureus [2]): 0.12 µg/mL (≈ 0.296 µM)
- MIC (Streptococcus pyogenes): 0.015 µg/mL (≈ 0.037 µM)
- pIC50 [3]: 4.67
- pIC50 [4]: 4.54
- efflux ratio [5]: 2.2
- pIC50 (Cytochrome P450 2D6): 4.52
- Activity (TK6 [6]): Non-Toxic
- pIC50 (Cytochrome P450 2C19): 4.52
- MIC (Enterococcus faecalis): 0.12 µg/mL (≈ 0.296 µM)
- MIC [7]: 1 µg/mL (≈ 2.47 µM)
- MIC (Neisseria gonorrhoeae [8]): 0.12 µg/mL (≈ 0.296 µM)
- pIC50 [9]: 4.03
- MIC (Neisseria gonorrhoeae [10]): 0.03 µg/mL (≈ 0.0741 µM)
- MIC (Staphylococcus aureus [11]): 0.25 µg/mL (≈ 0.617 µM)
- hepatocyte CLint [12]: 3 µL/min/1e6 cells
- pIC50 (Cytochrome P450 3A4): 4.76
- MIC (Staphylococcus aureus [13]): 0.12 µg/mL (≈ 0.296 µM)
- Activity (TK6 [14]): Toxic
- MIC (Staphylococcus aureus [15]): 0.12 µg/mL (≈ 0.296 µM)
- pIC50 (Topoisomerase IV): 5.21
- MIC90 (Staphylococcus aureus [16]): 0.5 µg/mL (≈ 1.23 µM)
- MIC (Staphylococcus aureus [17]): 0.5 µg/mL (≈ 1.23 µM)
- MIC (Staphylococcus aureus [18]): 0.12 µg/mL (≈ 0.296 µM)
- MIC (Haemophilus influenzae): 1 µg/mL (≈ 2.47 µM)
- MIC (Staphylococcus aureus [19]): 0.5 µg/mL (≈ 1.23 µM)
- MIC (Staphylococcus aureus [20]): 0.06 µg/mL (≈ 0.148 µM)
- pIC50 (Cytochrome P450 1A2): 4.52
- MIC (Escherichia coli): 0.5 µg/mL (≈ 1.23 µM)
- MIC (Streptococcus pneumoniae): 0.015 µg/mL (≈ 0.037 µM)
- CC50 [21]: 32 µg/mL (≈ 79 µM)
- pIC50 (DNA gyrase): 5.74
- MIC (Staphylococcus aureus [22]): 0.12 µg/mL (≈ 0.296 µM)
- MIC (Staphylococcus aureus [23]): 0.12 µg/mL
- pIC50 (Cytochrome P450 2C9): 4.79
- MIC [24]: 0.06 µg/mL (≈ 0.148 µM)
- Papp [25]: 20.7 ×10⁻⁶ cm/s
- MIC (Staphylococcus aureus [26]): 0.5 µg/mL (≈ 1.23 µM)
- MIC (Staphylococcus aureus [27]): 0.12 µg/mL (≈ 0.296 µM)
- MIC (Enterococcus faecium [28]): 8 µg/mL (≈ 19.8 µM)
- solubility kinetic [29]: > 100 µM
- MIC (Staphylococcus aureus [30]): 0.5 µg/mL (≈ 1.23 µM)
- fraction unbound [31]: 0.244
- MIC (Staphylococcus aureus [32]): 0.12 µg/mL (≈ 0.296 µM)
- MIC (Enterococcus faecium [33]): 8 µg/mL (≈ 19.8 µM)

SMILES: Cc1nc2c(=O)n3c4c(c(N5CCC(CN)C5)c(F)cc4c2o1)OC[C@H]3C (stereo partly drawn)
- MIC (Staphylococcus aureus [1]): 64 µg/mL (≈ 172 µM)
- MIC (Haemophilus influenzae): 128 µg/mL (≈ 344 µM)
- MIC (Escherichia coli): 64 µg/mL (≈ 172 µM)
- MIC (Streptococcus pneumoniae): 128 µg/mL (≈ 344 µM)

SMILES: CNCC1CCN(c2c(F)cc3c4oc(C)nc4c(=O)n(C4CC4)c3c2Cl)C1 (stereo not drawn)
- MIC (Staphylococcus aureus [1]): 0.25 µg/mL (≈ 0.617 µM)
- solubility thermodynamic [34]: 1180 µg/mL (≈ 2920 µM)
- MIC (Haemophilus influenzae): 1 µg/mL (≈ 2.47 µM)
- MIC (Escherichia coli): 1 µg/mL (≈ 2.47 µM)
- MIC (Streptococcus pneumoniae): 0.25 µg/mL (≈ 0.617 µM)

SMILES: Cc1nc2c(=O)n(C3CC3)c3c(Cl)c(N4CCNCC4)c(F)cc3c2o1
- MIC (Staphylococcus aureus [1]): 0.25 µg/mL (≈ 0.663 µM)
- solubility thermodynamic [34]: 885 µg/mL (≈ 2350 µM)
- MIC (Haemophilus influenzae): 0.5 µg/mL (≈ 1.33 µM)
- MIC (Escherichia coli): 0.5 µg/mL (≈ 1.33 µM)
- MIC (Streptococcus pneumoniae): 4 µg/mL (≈ 10.6 µM)

SMILES: Cc1nc2c(=O)n3c4c(c(N5CCC(CN)C5)c(F)cc4c2o1)OC[C@@H]3C (stereo partly drawn)
- MIC (Staphylococcus aureus [1]): 0.5 µg/mL (≈ 1.34 µM)
- MIC (Haemophilus influenzae): 4 µg/mL (≈ 10.7 µM)
- MIC (Escherichia coli): 2 µg/mL (≈ 5.37 µM)
- MIC (Streptococcus pneumoniae): 0.5 µg/mL (≈ 1.34 µM)

SMILES: Cc1nc2c(=O)n(C3CC3)c3c(Cl)c(N4CCC(N)CC4)c(F)cc3c2o1
- MIC (Staphylococcus aureus [1]): 0.25 µg/mL (≈ 0.64 µM)
- solubility thermodynamic [34]: 922 µg/mL (≈ 2360 µM)
- MIC (Haemophilus influenzae): 1 µg/mL (≈ 2.56 µM)
- MIC (Escherichia coli): 0.5 µg/mL (≈ 1.28 µM)
- MIC (Streptococcus pneumoniae): 0.5 µg/mL (≈ 1.28 µM)
